Where no end group is shown, it is not given here.
Key:
[1] = biological target: T1, AnkG_repeats (Rattus norvegicus, UniProt O70511); experiment: ITC binding to AnkG_repeats WT; conditions: deduced from site mutants and truncations
T1 construct: thioredoxin-His6 (N); made in house; host or cells: Escherichia coli BL21 (DE3)
T1 sequence (O70511 38-855): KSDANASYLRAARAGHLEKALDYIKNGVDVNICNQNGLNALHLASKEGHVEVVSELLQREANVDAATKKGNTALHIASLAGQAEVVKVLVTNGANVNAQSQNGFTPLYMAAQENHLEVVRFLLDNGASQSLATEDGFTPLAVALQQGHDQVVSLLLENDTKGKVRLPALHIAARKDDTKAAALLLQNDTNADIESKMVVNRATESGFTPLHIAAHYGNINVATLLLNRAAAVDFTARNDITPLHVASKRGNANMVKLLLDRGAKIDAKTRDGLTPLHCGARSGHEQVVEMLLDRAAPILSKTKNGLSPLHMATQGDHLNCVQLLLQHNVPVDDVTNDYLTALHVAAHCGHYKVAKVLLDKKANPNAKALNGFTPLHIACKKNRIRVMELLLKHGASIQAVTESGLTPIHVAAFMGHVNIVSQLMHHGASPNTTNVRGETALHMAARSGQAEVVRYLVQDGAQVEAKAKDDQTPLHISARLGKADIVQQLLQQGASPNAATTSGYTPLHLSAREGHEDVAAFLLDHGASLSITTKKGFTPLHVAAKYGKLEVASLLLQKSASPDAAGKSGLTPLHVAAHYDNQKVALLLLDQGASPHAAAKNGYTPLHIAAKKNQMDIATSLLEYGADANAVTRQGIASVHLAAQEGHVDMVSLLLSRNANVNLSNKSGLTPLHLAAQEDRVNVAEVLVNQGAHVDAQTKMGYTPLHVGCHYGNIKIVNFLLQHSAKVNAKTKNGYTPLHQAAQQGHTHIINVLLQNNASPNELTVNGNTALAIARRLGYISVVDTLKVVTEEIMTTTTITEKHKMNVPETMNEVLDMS
Source text: (§1) The coding sequences of AnkB_repeats (residues 28–873) were PCR amplified using the full-length human 220 kDa AnkB as the template. The coding sequences of the AnkR constructs, including AnkR_repeats (residues 42–853), and the full length AnkR C-terminal domain (residues 1529–1907), were PCR amplified from a mouse muscle cDNA library. The coding sequence of AnkG_repeats (residues 38–855) were PCR amplified using the full-length rat 190 kDa AnkG as the template. The fusion construct of AnkR_AS and AnkB_repeats was made by standard two-step PCR with a coding sequence of thrombin recognition residues ‘GSLVPRGS’ as the linker. This construct was used to crystallize and determine the complex structure. The same strategy was used in making other fusion constructs, including the Nav1.2_ABD-C/AnkB_repeats_R1–9 fusion construct containing residues 1103–1129 from mouse Nav1.2 and human AnkB residues 28–318 followed by a capping sequence corresponding to the αB of R24 (residues 814–822) and the AnkR_AS/AnkG_repeats fusion construct. For truncation mutations of ANK repeats constructs, the same capping sequence was added to the appropriate region of the C-terminus of each construct for protein stabilization. Mouse Nav1.2 (NP_001092768.1) and mouse neurofascin (CAD65849.1) were used here for studying their interaction with ankyrins. Peptides for mouse KCNQ2 (NP_034741.2, residues 826–845) and mouse Cav1.3 (NP_083257.2, residues 2134–2166) were commercially synthesized. For simplicity, we used human 220 kDa AnkB for the amino acid numbering throughout the manuscript. For the corresponding point mutations made on AnkG_repeats, each residue number should be increased by 10. All point mutations were created using the Quick Change site-directed mutagenesis kit and confirmed by DNA sequencing. […]
(§2) Isothermal titration calorimetry (ITC) measurements were carried out on a VP-ITC MicroCal calorimeter (MicroCal, Northampton, MA) at 25°C. […] The titration data were analyzed using the program Origin 7.0 and fitted by the one-site binding model.

[2] = biological target: T2, AnkG_repeats F131,F164Q (Rattus norvegicus, UniProt O70511, F141Q/F174Q); experiment: ITC binding to AnkG_repeats FF mutant (site 1); conditions: in words
T2 construct: thioredoxin-His6 (N); made in house; host or cells: Escherichia coli BL21 (DE3)
Source text: (§3) We next examined the interactions of AnkG_repeats with Nav1.2 and Nfasc using the structure of the ANK repeats/AS complex to design mutations specifically affecting each predicted site. […] To probe the binding sites of Nav1.2 and Nfasc on AnkG, we constructed AnkG_repeat mutants with the corresponding hydrophobic residues in binding site 1 (Phe131 and Phe164 in R4 and R5, termed ‘FF’), site 2 (Ile267 and Leu300 in R8 and R9; ‘IL’), and site 3 (Leu366, Phe399, and Leu432 in R11, R12, and R13; ‘LFL’) substituted with Gln (Figure 3D), and examined their binding to the two targets. […] The mutations in site 3 weakened ANK repeat binding to both targets (Figure 3F, Figure 3—figure supplement 3 and Figure 3—figure supplement 4). […] This conclusion is further supported by the binding of the two targets to various AnkG_repeat truncation mutants (Figure 3F, Figure 3—figure supplement 3 and Figure 3—figure supplement 4).
(§4) The coding sequences of AnkB_repeats (residues 28–873) were PCR amplified using the full-length human 220 kDa AnkB as the template. […]
as §2

[3] = biological target: T3, AnkG_repeats I267,L300Q (Rattus norvegicus, UniProt O70511, I277Q/L310Q); experiment: ITC binding to AnkG_repeats IL mutant (site 2); conditions: in words
T3 construct: thioredoxin-His6 (N); made in house; host or cells: Escherichia coli BL21 (DE3)
Source text: as §3, §4, §2

[4] = biological target: T4, AnkG_repeats L366,F399,L432Q (Rattus norvegicus, UniProt O70511, F409Q/L376Q/L442Q); experiment: ITC binding to AnkG_repeats LFL mutant (site 3); conditions: in words
T4 construct: thioredoxin-His6 (N); made in house; host or cells: Escherichia coli BL21 (DE3)
Source text: as §3, §4, §2

[5] = biological target: T1, AnkG_repeats; experiment: Analytical gel filtration of AS-AnkG_repeats fusion with Nav1.2 or Nfasc ABD; type: binding; conditions: Superose 12 10/300 GL, 50 mM Tris, 100 mM NaCl, 1 mM EDTA, 1 mM DTT, pH 7.5
Source text: as §1, with “ankyrins.” for “ankyrins. Peptides for mouse KCNQ2 (NP_034741.2, residues 826–845) and mouse Cav1.3 (NP_083257.2, residues 2134–2166) were commercially synthesized. For simplicity, we used human 220 kDa AnkB for the amino acid numbering throughout the manuscript. For the corresponding point mutations made on AnkG_repeats, each residue number should be increased by 10. All point mutations were created using the Quick Change site-directed mutagenesis kit and confirmed by DNA sequencing.”

[6] = biological target: T5, AnkG R1-6 (Rattus norvegicus, UniProt O70511, DEL222-823); experiment: ITC binding to AnkG R1-6 truncation; conditions: 25°C, pH 7.5, one-site binding model
T5 construct: thioredoxin-His6 (N); made in house; host or cells: Escherichia coli BL21 (DE3)
Source text: (§5) The coding sequences of AnkB_repeats (residues 28–873) were PCR amplified using the full-length human 220 kDa AnkB as the template. The coding sequences of the AnkR constructs, including AnkR_repeats (residues 42–853), and the full length AnkR C-terminal domain (residues 1529–1907), were PCR amplified from a mouse muscle cDNA library. The coding sequence of AnkG_repeats (residues 38–855) were PCR amplified using the full-length rat 190 kDa AnkG as the template. The fusion construct of AnkR_AS and AnkB_repeats was made by standard two-step PCR with a coding sequence of thrombin recognition residues ‘GSLVPRGS’ as the linker. This construct was used to crystallize and determine the complex structure. The same strategy was used in making other fusion constructs, including the Nav1.2_ABD-C/AnkB_repeats_R1–9 fusion construct containing residues 1103–1129 from mouse Nav1.2 and human AnkB residues 28–318 followed by a capping sequence corresponding to the αB of R24 (residues 814–822) and the AnkR_AS/AnkG_repeats fusion construct. […]
as §2

[7] = biological target: T6, AnkR_repeats (Mus musculus, UniProt Q02357); experiment: ITC binding to AnkR_repeats; conditions: VP-ITC, 25°C, 50 mM Tris, 100 mM NaCl, 1 mM EDTA, 1 mM DTT, pH 7.5, one-site binding model, ND = no detectable binding
T6 construct: thioredoxin-His6 (N); made in house; host or cells: Escherichia coli BL21 (DE3)
Source text: as §5, §2

[8] = biological target: T7, AnkB_repeats WT (Homo sapiens, UniProt Q01484); experiment: Fluorescence polarization binding to AnkB_repeats WT; conditions: deduced from ANK repeats WT and site mutants
T7 construct: thioredoxin-His6 (N); made in house; host or cells: Escherichia coli BL21 (DE3)
T7 sequence (Q01484 28-873 isoform Q01484-2): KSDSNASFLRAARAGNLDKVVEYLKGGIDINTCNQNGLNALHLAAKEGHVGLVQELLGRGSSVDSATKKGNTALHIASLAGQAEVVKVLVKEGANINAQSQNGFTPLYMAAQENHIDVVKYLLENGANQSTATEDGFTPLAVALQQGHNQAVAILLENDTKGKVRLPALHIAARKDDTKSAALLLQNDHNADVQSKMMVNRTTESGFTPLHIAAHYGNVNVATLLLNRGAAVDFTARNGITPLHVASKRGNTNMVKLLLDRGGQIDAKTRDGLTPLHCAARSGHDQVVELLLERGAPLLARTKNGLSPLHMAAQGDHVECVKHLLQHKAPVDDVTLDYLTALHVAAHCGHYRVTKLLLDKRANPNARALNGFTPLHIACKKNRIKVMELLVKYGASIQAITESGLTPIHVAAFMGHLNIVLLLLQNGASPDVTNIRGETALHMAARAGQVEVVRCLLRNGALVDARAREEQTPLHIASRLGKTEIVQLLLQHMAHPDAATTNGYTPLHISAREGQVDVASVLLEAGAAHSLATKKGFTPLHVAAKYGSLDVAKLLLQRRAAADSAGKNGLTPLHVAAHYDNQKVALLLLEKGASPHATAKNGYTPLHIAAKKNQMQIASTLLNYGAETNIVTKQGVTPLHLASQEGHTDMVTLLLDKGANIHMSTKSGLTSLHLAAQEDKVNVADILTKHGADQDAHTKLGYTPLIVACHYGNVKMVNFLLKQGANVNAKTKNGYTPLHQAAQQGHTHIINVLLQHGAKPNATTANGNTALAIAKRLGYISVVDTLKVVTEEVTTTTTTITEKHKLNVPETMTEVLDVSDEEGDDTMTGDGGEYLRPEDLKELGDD
Source text: as §5, with “construct. For truncation mutations of ANK repeats constructs, the same capping sequence was added to the appropriate region of the C-terminus of each construct for protein stabilization.” for “construct.”
Fluorescence assays were performed on a PerkinElmer LS-55 fiuorimeter equipped with an automated polarizer at 25°C. […]

T6 sequence (Q02357 5-816): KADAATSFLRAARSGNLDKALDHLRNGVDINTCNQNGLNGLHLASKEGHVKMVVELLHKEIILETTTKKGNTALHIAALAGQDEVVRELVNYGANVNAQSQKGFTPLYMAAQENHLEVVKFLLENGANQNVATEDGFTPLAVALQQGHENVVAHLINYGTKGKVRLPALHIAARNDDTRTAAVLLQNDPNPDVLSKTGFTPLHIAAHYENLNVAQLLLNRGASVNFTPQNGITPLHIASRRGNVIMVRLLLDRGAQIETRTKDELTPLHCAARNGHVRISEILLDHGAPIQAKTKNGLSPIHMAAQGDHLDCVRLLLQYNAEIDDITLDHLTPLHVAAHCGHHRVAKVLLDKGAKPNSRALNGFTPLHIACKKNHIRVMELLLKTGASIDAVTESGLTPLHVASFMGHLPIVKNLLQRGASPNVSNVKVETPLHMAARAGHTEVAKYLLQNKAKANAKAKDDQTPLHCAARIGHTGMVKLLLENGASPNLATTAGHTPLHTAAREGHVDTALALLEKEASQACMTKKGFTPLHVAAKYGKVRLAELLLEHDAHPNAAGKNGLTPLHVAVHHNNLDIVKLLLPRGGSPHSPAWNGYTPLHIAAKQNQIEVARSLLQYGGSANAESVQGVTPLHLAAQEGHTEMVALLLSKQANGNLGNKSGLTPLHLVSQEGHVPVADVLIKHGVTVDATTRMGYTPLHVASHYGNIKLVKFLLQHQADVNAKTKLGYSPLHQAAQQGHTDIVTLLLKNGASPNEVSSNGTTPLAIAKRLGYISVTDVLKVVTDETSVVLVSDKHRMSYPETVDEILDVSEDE
T5 sequence (O70511 with tags, fused parts or gaps DEL222-823 limits assumed): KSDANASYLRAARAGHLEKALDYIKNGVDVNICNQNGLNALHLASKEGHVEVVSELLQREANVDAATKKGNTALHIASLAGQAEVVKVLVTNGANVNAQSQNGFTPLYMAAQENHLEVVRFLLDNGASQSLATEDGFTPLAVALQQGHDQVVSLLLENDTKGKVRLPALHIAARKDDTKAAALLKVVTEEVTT
T3 sequence (O70511 38-855 I277Q/L310Q): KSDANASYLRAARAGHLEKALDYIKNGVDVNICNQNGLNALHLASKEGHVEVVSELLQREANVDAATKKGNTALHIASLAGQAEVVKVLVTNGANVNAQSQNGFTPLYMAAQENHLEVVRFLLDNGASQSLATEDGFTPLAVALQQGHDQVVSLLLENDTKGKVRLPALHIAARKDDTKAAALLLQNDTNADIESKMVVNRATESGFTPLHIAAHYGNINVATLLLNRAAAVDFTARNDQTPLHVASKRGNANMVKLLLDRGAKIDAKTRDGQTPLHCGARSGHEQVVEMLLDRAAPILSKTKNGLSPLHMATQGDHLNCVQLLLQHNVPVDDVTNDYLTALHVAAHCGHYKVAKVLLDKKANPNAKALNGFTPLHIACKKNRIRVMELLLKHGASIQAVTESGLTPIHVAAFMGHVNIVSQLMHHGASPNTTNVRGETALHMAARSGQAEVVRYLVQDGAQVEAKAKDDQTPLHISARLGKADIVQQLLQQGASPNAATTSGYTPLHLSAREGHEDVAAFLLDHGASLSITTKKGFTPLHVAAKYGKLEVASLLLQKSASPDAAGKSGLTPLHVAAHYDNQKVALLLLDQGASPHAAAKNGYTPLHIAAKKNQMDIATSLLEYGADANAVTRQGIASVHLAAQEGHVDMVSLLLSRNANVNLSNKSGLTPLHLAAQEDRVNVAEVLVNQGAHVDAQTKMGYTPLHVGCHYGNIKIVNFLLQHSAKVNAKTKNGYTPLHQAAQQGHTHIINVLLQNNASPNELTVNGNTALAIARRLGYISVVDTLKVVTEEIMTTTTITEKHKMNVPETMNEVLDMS
T2 sequence (O70511 38-855 F141Q/F174Q): as the sequence (O70511 38-855 I277Q/L310Q) above, with F104Q, F137Q, Q240I, Q273L counted along it
T4 sequence (O70511 38-855 L376Q/F409Q/L442Q): as the sequence (O70511 38-855 I277Q/L310Q) above, with Q240I, Q273L, L339Q, F372Q, L405Q counted along it

“SDDSLVDYGEGGEGQFNEDGSFIGQYTV [Nfasc_ABD]” was tested, and the “ANK repeat sites used for binding” value [1] was “sites 2 and 3”, the “effect of site 1 mutations on binding” value [2] was “no impact” and the “effect of site 2 mutations on binding” value [3] was “significantly weakened”. The “effect of site 3 mutations on binding” value [4] was “weakened” and the “complex formation with AS-AnkG_repeats fusion protein” value [5] was “No complex peaks formed”.
“TVTVPIAVGESDFENLNTEEFSSESDM [ABD-C (1103 - 1129)]” was tested, and the Kd [6] was 2300 ± 200 nM.
With “CADQYWNEVAVIDAIPLAATEHDTMLEMSDMQVWSAGLTPSLVTAEDS [AnkR_AS]” the Kd [7] was 360 ± 20 nM.
With “FITC-Cav1.3 peptide: mouse Cav1.3 (NP_083257.2, residues 2134–2166), commercially synthesized (NGDMGPISHRQDYELQDFGPGYSDEEPDPGREE; also: FITC label; UniProt Q99246 2134-2166, looked up, fragment)” the “ANK repeat sites used for binding” value [8] was “primarily relies on site 2”.

Source: publication PMC4358367, “Structural basis of diverse membrane target recognitions by ankyrins” (eLife, 2014)
